Assay results reported in the Kinase Knowledgebase extract (Sharma et al. 2016).
Several values for one entry are separate records, joined by “and”; a condition that tells them apart may be missing. Equal values may be shown once.

Legend:
MAPK14 (rat) = assay: Pharmacokinetic Studies
MAPK14 (human) = MAPK14 (human) (UniProt Q16539); assay: TNF-alpha Inhibition; conditions: thp1
MAPK14 (mouse) = assay: p38 Inhibition
MAPK14 (Balb/c mice) = assay: TNF-alpha Inhibition (in vivo)
MAPK14 (Lewis rat) = assay: p38 Inhibition (SCW-Induced Arthritis Model)

MAPK14 (human), sequence (Q16539 whole entry, looked up): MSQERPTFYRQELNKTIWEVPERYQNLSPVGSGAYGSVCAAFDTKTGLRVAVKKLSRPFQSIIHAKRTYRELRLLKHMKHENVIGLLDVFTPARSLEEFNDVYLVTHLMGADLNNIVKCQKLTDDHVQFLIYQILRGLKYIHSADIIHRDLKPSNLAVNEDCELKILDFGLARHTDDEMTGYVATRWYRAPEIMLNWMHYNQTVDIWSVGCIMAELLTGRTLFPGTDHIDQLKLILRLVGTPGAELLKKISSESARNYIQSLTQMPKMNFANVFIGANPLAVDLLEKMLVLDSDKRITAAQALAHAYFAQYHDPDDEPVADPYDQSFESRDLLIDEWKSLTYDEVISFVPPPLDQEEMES

Row | Compound | IC50 (MAPK14 (human)) | AUC (MAPK14 (rat)) | also measured
1 | CN(C)C(=O)[C@]1(C)CO[C@@H](c2nc(-c3ccc(F)cc3)c(-c3ccnc(NCc4ccccn4)n3)[nH]2)OC1 | 9 nM | 529 ng·h/mL | –
2 | C[C@]1(C(=O)N2CCOCC2)CO[C@H](c2nc(-c3ccc(F)cc3)c(-c3ccncc3)[nH]2)OC1 | 60 nM | 247 ng·h/mL and 628 ng·h/mL | Cp (MAPK14 (rat)): 277 ng/mL; IC50 (MAPK14 (mouse)): 110000 nM; ED50 (MAPK14 (Balb/c mice)): Between 3 to 10 mg kg-1
3 | CN(C)C(=O)[C@]1(C)CO[C@@H](c2nc(-c3ccc(F)cc3)c(-c3ccnc(NCC4CC4)n3)[nH]2)OC1 | 0.2 nM | 276 ng·h/mL | –
4 | C[C@]1(C(=O)NC2CC2)CO[C@H](c2nc(-c3ccc(F)cc3)c(-c3ccnc(NCC4CC4)n3)[nH]2)OC1 | – | 288 ng·h/mL | –
5 | C[C@@H]1C[C@H]2[C@@H]3CCC4=CC(=O)C=C[C@]4(C)[C@@]3(F)[C@@H](O)C[C@]2(C)[C@@]1(O)C(=O)CO | – | – | score (MAPK14 (Lewis rat)): 22.5
6 | CN1CCN(C(=O)[C@]2(C)CO[C@@H](c3nc(-c4ccc(F)cc4)c(-c4ccnc(NCC5CC5)n4)[nH]3)OC2)CC1 | 2 nM | 541 ng·h/mL | bioavailability (MAPK14 (rat); dose or concentration not given here): 20%; score (MAPK14 (Lewis rat)): 40 and 34 and 25
7 | COCCNc1nccc(-c2[nH]c([C@H]3OC[C@@](C)(C(=O)NCC4CC4)CO3)nc2-c2ccc(F)cc2)n1 | – | 121 ng·h/mL | –
8 | CC(C)NC(=O)[C@]1(C)CO[C@@H](c2nc(-c3ccc(F)cc3)c(-c3ccnc(NCC4CC4)n3)[nH]2)OC1 | – | 412 ng·h/mL | –

Second part, led by results:

Row | IC50 (MAPK14 (human)) | Compound | AUC (MAPK14 (rat)) | also measured
9 | 71 nM | COCCCNc1nccc(-c2[nH]c([C@H]3OC[C@@](C)(C(=O)NCCOC)CO3)nc2-c2ccc(F)cc2)n1 | 138 ng·h/mL | –
10 | 3 nM | CCCNC(=O)[C@]1(C)CO[C@@H](c2nc(-c3ccc(F)cc3)c(-c3ccnc(NCc4ccco4)n3)[nH]2)OC1 | 257 ng·h/mL | –
11 | 73 nM | C=CCNc1nccc(-c2[nH]c([C@H]3OC[C@@](C)(C(=O)NCCOC)CO3)nc2-c2ccc(F)cc2)n1 | 169 ng·h/mL | –
12 | 3.5 nM | CCCNC(=O)[C@]1(C)CO[C@@H](c2nc(-c3ccc(F)cc3)c(-c3ccnc(NCCCOC)n3)[nH]2)OC1 | 738 ng·h/mL | –
